How the values were obtained:
Assay type in all cases: biochemical
JAK2 = molecular target: T1, JAK2 (Homo sapiens, UniProt O60674); assay: JAK2 enzyme inhibition test (LANCE method); details: 1 μM test compound; read-out: JAK2 enzyme inhibitory activity (%, 1 μM)
T1 construct: purchased Invitrogen
Procedure: (§1) JAK2 enzyme inhibitory activity of test compounds was measured by the LANCE method (PerkinElmer). First, a test compound diluted with assay buffer (50 mM HEPES (pH 7.5), 10 mM MgCl2, 1 mM EGTA, 2 mM DTT, 0.01% Tween20, 0.01% BSA) was added to a 384-well plate by 2 μL each. Then, a JAK2 (Invitrogen) solution and a fluorescence-labeled peptide substrate (ULight-JAK1, PerkinElmer) solution diluted with assay buffer to 6 ng/mL and 300 nM, respectively, were added by 2 μL each. Then, an enzyme reaction was started by adding 2 μL each of ATP solution prepared with assay buffer to 45 μM. After the reaction at room temperature for 1 hr, Detection Buffer (PerkinElmer) prepared to contain 20 mM EDTA, 4 nM europium-labeled anti-phosphotyrosine antibody (PerkinElmer) was added by 6 μL each. After standing at room temperature for 1 hr, fluorescence intensity (excitation wavelength 340 nm, fluorescence wavelength 665 nm, delay time 100 microseconds) was measured by a plate reader, Envision (PerkinElmer). The inhibitory activity of each compound was calculated as a relative activity value to the fluorescence intensity of a well free of enzyme as 100% inhibition.

JAK3 = molecular target: T2, JAK3 (Homo sapiens, UniProt P52333); assay: JAK3 enzyme inhibition test (LANCE method); details: 1 μM test compound; read-out: JAK3 enzyme inhibitory activity (%, 1 μM)
T2 construct: purchased Invitrogen
T2 sequence (P52333 1-1124): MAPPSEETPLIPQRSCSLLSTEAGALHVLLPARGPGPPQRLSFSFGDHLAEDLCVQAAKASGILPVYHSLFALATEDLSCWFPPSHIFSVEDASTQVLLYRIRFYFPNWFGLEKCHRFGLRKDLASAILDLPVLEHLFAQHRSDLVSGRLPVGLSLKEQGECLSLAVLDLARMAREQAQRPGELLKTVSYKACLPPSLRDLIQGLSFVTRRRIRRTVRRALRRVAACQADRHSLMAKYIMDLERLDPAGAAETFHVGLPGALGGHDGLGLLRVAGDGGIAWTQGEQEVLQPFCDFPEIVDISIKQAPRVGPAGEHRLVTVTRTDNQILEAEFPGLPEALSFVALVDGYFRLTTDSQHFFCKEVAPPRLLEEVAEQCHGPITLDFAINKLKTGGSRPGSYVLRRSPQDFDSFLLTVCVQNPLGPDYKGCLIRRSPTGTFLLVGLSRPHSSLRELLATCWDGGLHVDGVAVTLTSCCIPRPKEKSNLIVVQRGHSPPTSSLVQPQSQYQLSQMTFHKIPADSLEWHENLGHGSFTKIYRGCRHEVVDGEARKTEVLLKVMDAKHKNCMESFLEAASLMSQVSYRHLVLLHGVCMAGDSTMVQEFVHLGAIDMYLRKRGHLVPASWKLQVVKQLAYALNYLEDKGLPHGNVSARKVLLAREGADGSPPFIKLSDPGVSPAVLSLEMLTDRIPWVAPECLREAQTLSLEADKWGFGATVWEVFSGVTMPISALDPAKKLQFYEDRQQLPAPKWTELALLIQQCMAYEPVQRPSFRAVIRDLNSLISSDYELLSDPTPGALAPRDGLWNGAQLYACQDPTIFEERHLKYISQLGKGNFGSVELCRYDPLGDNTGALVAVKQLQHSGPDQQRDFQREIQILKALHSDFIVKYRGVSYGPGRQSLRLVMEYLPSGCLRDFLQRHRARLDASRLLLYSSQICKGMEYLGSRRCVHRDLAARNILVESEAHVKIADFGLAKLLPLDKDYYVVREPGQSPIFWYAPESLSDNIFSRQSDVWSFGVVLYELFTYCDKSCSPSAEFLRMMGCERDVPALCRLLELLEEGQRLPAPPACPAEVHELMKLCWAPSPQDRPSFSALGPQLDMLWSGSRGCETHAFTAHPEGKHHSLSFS
Procedure: as §1, with “JAK3 enzyme” for “JAK2 enzyme”, “a JAK3” for “a JAK2”, “to 12” for “to 6”, “to 15” for “to 45”

JAK1 = molecular target: T3, JAK1 (Homo sapiens, UniProt P23458); assay: JAK1 enzyme inhibition test (LANCE method); details: 1 μM test compound; read-out: JAK1 enzyme inhibitory activity (%, 1 μM)
T3 construct: purchased Invitrogen
T3 sequence (P23458 whole entry): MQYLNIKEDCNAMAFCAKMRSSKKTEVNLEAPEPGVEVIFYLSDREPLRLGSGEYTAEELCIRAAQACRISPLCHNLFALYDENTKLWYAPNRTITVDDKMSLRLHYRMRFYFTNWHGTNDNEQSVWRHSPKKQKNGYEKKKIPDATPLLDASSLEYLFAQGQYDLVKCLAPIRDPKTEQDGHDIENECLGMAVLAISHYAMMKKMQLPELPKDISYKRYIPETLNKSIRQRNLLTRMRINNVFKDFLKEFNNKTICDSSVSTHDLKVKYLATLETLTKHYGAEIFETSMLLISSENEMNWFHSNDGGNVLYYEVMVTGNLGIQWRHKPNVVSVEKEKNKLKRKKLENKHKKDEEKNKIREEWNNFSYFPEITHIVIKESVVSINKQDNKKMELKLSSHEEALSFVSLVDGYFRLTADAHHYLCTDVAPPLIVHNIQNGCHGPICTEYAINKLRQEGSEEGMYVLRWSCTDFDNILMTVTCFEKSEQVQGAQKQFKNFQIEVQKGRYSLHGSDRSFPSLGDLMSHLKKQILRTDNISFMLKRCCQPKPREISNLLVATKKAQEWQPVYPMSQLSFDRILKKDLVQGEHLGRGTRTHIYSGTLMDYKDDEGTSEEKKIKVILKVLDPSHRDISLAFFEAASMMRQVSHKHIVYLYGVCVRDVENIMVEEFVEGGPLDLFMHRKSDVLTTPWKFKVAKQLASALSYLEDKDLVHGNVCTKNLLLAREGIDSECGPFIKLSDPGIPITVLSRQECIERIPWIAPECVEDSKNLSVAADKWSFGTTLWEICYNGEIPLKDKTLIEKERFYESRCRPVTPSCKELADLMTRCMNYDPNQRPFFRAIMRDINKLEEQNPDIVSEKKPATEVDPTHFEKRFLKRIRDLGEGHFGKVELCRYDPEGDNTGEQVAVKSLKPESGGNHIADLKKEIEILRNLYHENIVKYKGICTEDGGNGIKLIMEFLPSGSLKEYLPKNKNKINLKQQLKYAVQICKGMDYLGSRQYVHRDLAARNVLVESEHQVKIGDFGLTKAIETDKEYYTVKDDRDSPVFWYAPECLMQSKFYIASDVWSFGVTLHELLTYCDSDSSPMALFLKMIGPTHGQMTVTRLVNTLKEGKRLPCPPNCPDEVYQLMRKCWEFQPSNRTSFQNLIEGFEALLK
Procedure: as §1, with “JAK1 enzyme” for “JAK2 enzyme”, “a JAK1” for “a JAK2”, “to 187.5” for “to 6”, “to 150” for “to 45”

TYK2 = molecular target: T4, TYK2 (Homo sapiens, UniProt P29597); assay: TYK2 enzyme inhibition test (LANCE method); details: 1 μM test compound; read-out: TYK2 enzyme inhibitory activity (%, 1 μM)
T4 construct: purchased Invitrogen
T4 sequence (P29597 whole entry): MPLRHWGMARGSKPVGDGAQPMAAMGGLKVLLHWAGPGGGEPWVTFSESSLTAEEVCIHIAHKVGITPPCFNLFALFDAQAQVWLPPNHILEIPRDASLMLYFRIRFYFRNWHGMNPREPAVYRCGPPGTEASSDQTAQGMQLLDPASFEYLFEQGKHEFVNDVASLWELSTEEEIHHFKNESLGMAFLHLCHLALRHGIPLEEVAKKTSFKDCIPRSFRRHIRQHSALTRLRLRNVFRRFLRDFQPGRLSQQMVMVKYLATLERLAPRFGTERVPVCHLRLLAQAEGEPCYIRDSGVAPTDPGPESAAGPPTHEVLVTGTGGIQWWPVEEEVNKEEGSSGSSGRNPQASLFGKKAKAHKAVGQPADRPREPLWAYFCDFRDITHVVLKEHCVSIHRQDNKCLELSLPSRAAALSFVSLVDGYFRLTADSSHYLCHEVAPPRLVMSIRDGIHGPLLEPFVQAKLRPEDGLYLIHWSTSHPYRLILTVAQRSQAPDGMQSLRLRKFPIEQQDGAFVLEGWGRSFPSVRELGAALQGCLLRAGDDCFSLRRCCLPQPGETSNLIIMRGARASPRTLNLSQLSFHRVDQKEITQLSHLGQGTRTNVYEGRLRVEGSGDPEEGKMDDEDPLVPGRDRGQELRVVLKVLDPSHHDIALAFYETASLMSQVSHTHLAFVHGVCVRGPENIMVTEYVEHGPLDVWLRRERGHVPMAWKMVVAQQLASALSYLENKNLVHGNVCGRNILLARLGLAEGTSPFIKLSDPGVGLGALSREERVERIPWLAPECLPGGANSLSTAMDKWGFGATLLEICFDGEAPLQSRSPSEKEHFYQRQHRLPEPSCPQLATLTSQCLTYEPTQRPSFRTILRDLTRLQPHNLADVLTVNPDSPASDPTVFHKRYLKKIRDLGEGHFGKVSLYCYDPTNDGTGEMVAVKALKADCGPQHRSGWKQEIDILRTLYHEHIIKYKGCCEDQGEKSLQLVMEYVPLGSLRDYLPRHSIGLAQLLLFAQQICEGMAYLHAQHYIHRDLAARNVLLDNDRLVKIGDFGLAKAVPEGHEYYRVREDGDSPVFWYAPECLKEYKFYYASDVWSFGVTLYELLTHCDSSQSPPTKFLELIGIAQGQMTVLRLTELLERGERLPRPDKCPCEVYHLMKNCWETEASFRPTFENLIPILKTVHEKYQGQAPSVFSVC
Procedure: as §1, with “TYK2 enzyme” for “JAK2 enzyme”, “a TYK2” for “a JAK2”, “to 375” for “to 6”, “to 30” for “to 45”

T1 sequence (O60674 whole entry): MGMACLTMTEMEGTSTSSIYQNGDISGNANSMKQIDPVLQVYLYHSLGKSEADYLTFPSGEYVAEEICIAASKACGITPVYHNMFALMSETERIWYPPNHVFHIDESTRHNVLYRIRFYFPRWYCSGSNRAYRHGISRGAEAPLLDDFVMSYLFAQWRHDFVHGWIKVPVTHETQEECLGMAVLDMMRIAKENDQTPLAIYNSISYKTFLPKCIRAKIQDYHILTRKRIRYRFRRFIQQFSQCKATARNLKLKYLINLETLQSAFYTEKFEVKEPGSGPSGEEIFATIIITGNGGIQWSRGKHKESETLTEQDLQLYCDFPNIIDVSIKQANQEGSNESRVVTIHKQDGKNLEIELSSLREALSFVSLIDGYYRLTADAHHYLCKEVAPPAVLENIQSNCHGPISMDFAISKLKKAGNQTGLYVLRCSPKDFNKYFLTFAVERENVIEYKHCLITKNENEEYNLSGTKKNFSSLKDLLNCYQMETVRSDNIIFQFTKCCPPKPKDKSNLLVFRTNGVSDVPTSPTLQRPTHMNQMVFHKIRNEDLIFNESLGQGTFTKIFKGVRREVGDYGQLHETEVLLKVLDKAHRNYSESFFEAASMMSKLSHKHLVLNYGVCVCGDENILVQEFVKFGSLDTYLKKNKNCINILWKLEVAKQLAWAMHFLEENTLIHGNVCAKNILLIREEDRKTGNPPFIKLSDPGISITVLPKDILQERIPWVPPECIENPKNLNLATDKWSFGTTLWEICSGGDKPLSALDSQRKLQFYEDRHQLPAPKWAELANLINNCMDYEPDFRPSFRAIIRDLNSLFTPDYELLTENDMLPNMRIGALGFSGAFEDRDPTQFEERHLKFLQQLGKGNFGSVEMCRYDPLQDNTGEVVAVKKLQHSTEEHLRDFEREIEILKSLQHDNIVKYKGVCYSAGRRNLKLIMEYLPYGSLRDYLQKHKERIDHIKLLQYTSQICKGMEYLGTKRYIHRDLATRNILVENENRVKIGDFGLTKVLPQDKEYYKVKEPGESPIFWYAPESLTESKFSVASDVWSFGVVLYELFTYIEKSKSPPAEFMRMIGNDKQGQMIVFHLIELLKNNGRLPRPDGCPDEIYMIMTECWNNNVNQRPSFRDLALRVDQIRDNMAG

| inhibition at 1 µM (JAK2) | inhibition at 1 µM (JAK3) | inhibition at 1 µM (JAK1) | inhibition at 1 µM (TYK2) | SMILES |
| --- | --- | --- | --- | --- |
| 98% | 99% | 96% | 99% | CC(C)[C@H](C)n1cc(-c2cc(N3CCN(C)CC3)n(C)n2)c2[nH]nc(N)c2c1=O [Example 10, 3-amino-5-((2S)-3-methylbutan-2-yl)-7-(1-methyl-5-(4-methylpiperazin-1-yl)-1H-pyrazol-3-yl)-1,5-dihydro-4H-pyrazolo[4,3-c]pyridin-4-one] |
| 99% | 99% | 93% | 100% | CC(C)[C@H](C)n1cc(-c2cc(N3CCS(=O)(=O)CC3)n(C)n2)c2[nH]nc(N)c2c1=O [Example 12, 3-amino-7-(5-(1,1-dioxidothiomorpholin-4-yl)-1-methyl-1H-pyrazol-3-yl)-5-((2S)-3-methylbutan-2-yl)-1,5-dihydro-4H-pyrazolo[4,3-c]pyridin-4-one] |
| 99% | 99% | 97% | 100% | CC(C)[C@H](C)n1cc(-c2cc(N3CCCOCC3)n(C)n2)c2[nH]nc(N)c2c1=O [Example 13, 3-amino-5-((2S)-3-methylbutan-2-yl)-7-(1-methyl-5-(1,4-oxazepan-4-yl)-1H-pyrazol-3-yl)-1,5-dihydro-4H-pyrazolo[4,3-c]pyridin-4-one] |
| 99% | 100% | 97% | 100% | CC(C)[C@H](C)n1cc(-c2cc(N3CCC(F)(F)CC3)n(C)n2)c2[nH]nc(N)c2c1=O [Example 16, 3-amino-7-(5-(4,4-difluoropiperidin-1-yl)-1-methyl-1H-pyrazol-3-yl)-5-((2S)-3-methylbutan-2-yl)-1,5-dihydro-4H-pyrazolo[4,3-c]pyridin-4-one] |

The next lines start with the compound.

| SMILES | inhibition at 1 µM (JAK2) | inhibition at 1 µM (JAK3) | inhibition at 1 µM (JAK1) | inhibition at 1 µM (TYK2) |
| --- | --- | --- | --- | --- |
| C[C@@H](C1CC1)n1cc(-c2cc(C(C)(C)O)n(C)n2)c2[nH]nc(N)c2c1=O [Example 7, 3-amino-5-((1S)-1-cyclopropylethyl)-7-(5-(2-hydroxypropan-2-yl)-1-methyl-1H-pyrazol-3-yl)-1,5-dihydro-4H-pyrazolo[4,3-c]pyridin-4-one] | 100% | 100% | 100% | 99% |
| C[C@@H](C1CC1)n1cc(-c2cc(N3CCC(C)(O)CC3)n(C)n2)c2[nH]nc(N)c2c1=O [Example 8, 3-amino-5-((1S)-1-cyclopropylethyl)-7-(5-(4-hydroxy-4-methylpiperidin-1-yl)-1-methyl-1H-pyrazol-3-yl)-1,5-dihydro-4H-pyrazolo[4,3-c]pyridin-4-one] | 99% | 100% | 99% | 99% |
| CC(C1CC1)n1cc(-c2cc(CN3CCS(=O)(=O)CC3)n(C)n2)c2[nH]nc(N)c2c1=O (stereo not shown) [Example 9, 3-amino-5-(1-cyclopropylethyl)-7-(5-((1,1-dioxidothiomorpholin-4-yl)methyl)-1-methyl-1H-pyrazol-3-yl)-1,5-dihydro-4H-pyrazolo[4,3-c]pyridin-4-one] | 99% | 100% | 98% | 99% |
| CC(=O)N1CCN(c2cc(-c3cn([C@@H](C)C(C)C)c(=O)c4c(N)n[nH]c34)nn2C)CC1 [Example 11, 7-(5-(4-acetylpiperazin-1-yl)-1-methyl-1H-pyrazol-3-yl)-3-amino-5-((2S)-3-methylbutan-2-yl)-1,5-dihydro-4H-pyrazolo[4,3-c]pyridin-4-one] | 99% | 99% | 98% | 100% |
| COC1CCN(c2cc(-c3cn([C@@H](C)C(C)C)c(=O)c4c(N)n[nH]c34)nn2C)CC1 [Example 14, 3-amino-7-(5-(4-methoxypiperidin-1-yl)-1-methyl-1H-pyrazol-3-yl)-5-((2S)-3-methylbutan-2-yl)-1,5-dihydro-4H-pyrazolo[4,3-c]pyridin-4-one] | 99% | 99% | 97% | 99% |
| CC(C)[C@H](C)n1cc(-c2cc(N3CCC(C(C)(C)O)CC3)n(C)n2)c2[nH]nc(N)c2c1=O [Example 15, 3-amino-7-(5-(4-(2-hydroxypropan-2-yl)piperidin-1-yl)-1-methyl-1H-pyrazol-3-yl)-5-((2S)-3-methylbutan-2-yl)-1,5-dihydro-4H-pyrazolo[4,3-c]pyridin-4-one] | 99% | 100% | 97% | 100% |
